Laboratory results reported in patent US20250313548A1 (Actio Biosciences, Inc., priority 2023, published 2025).

Biological target: human, KCNT1 (Homo sapiens (Human), UniProt Q5JUK3)
Test: FLIPR Tl/K Flux Assay
Type: cell-based
Settings: HEK293 cells stably expressing human KCNT1; Tl+ flux stimulated with EC80 of agonist Loxapine
Summary of the method: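 Inhibition values come from a Hill-equation fit of % inhibition versus log concentration, using normalized fluorescence (Fmax/Fmin) over a 160 s read. The read followed stimulation with Tl+ plus EC80 agonist loxapine after 30 min compound pre-incubation at 25 °C. Cells were KCNT1-expressing HEK293, dye-loaded 1 h in pH 7.4 HEPES/HBSS with 5 mM probenecid.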

Sequence of human, KCNT1 (Q5JUK3 whole entry): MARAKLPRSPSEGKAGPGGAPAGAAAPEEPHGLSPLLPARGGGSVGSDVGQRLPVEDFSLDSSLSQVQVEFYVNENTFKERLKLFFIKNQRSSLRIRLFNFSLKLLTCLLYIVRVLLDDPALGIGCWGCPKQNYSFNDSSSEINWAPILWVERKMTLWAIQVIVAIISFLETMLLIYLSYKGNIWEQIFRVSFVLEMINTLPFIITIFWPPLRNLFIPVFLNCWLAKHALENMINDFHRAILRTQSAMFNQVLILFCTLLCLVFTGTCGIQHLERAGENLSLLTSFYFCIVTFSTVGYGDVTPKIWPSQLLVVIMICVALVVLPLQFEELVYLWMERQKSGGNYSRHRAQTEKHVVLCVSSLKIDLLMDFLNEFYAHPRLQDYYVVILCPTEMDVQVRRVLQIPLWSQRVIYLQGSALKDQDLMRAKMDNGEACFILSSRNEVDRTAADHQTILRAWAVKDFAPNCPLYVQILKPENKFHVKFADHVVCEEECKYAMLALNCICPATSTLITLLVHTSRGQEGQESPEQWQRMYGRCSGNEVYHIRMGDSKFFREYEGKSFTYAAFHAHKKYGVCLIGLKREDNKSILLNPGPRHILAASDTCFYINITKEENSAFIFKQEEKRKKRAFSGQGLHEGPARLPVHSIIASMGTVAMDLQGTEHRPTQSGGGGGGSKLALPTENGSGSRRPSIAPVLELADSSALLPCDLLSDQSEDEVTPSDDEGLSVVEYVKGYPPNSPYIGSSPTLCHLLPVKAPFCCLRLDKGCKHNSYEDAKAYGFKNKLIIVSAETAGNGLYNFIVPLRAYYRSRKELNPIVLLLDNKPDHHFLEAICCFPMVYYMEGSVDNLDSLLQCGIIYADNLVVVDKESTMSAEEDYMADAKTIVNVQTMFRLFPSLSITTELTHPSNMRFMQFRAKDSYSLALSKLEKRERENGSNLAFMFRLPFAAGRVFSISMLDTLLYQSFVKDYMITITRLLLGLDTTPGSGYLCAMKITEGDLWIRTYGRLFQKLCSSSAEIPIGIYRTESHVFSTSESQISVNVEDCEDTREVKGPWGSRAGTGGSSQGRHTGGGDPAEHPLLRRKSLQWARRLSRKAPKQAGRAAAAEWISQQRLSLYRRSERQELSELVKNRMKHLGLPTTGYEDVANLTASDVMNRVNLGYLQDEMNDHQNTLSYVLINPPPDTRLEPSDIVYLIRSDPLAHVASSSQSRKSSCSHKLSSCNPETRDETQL

SMILES	IC50 [nM]
O=C(N[C@H]1CCn2nc(-c3ccnc(C(F)(F)F)c3)cc21)C12CC(F)(C1)C2 [Compound I-489a, (S)-3-Fluoro-N-(2-(2-(trifluoromethyl)pyridin-4-yl)-5,6-dihydro-4H-pyrrolo[1,2-b]pyrazol-4-yl)bicyclo[1.1.1]pentane-1-carboxamide]	< 250
O=C(N[C@H]1CCn2nc(-c3ccnc(C(F)(F)F)c3)cc21)C12CC(Cl)(C1)C2 [Compound I-490a, (S)-3-Chloro-N-(2-(2-(trifluoromethyl)pyridin-4-yl)-5,6-dihydro-4H-pyrrolo[1,2-b]pyrazol-4-yl)bicyclo[1.1.1]pentane-1-carboxamide]	< 250
N#CC12CC(C(=O)N[C@H]3CCn4nc(-c5ccnc(C(F)(F)F)c5)cc43)(C1)C2 [Compound I-491a, (S)-3-Cyano-N-(2-(2-(trifluoromethyl)pyridin-4-yl)-5,6-dihydro-4H-pyrrolo[1,2-b]pyrazol-4-yl)bicyclo[1.1.1]pentane-1-carboxamide]	500 to 1000
Cc1cnc(C2CC2)cc1-c1cc2n(n1)CC[C@@H]2NC(=O)c1nc(C(F)(F)F)nn1C [Compound I-492a, (S)-N-(2-(2-Cyclopropyl-5-methylpyridin-4-yl)-5,6-dihydro-4H-pyrrolo[1,2-b]pyrazol-4-yl)-1-methyl-3-(trifluoromethyl)-1H-1,2,4-triazole-5-carboxamide]	< 250
O=C(N[C@H]1CCn2nc(-c3cc(C(F)(F)F)ncc3F)cc21)C12CC(C(F)(F)F)(C1)C2 [Compound I-493a, (S)-N-(2-(5-Fluoro-2-(trifluoromethyl)pyridin-4-yl)-5,6-dihydro-4H-pyrrolo[1,2-b]pyrazol-4-yl)-3-(trifluoromethyl)bicyclo[1.1.1]pentane-1-carboxamide]	< 250
O=C(N[C@H]1CCn2nc(-c3ccnc(C4CC4)c3)cc21)C12CC(C(F)(F)F)(C1)C2 [Compound I-494a, (S)-N-(2-(2-Cyclopropylpyridin-4-yl)-5,6-dihydro-4H-pyrrolo[1,2-b]pyrazol-4-yl)-3-(trifluoromethyl)bicyclo[1.1.1]pentane-1-carboxamide]	< 250
Cn1nc(C(F)(F)F)nc1C(=O)N[C@H]1CCCn2nc(-c3cc(C4CC4)ncc3F)cc21 [Compound I-495a, (S)-N-(2-(2-Cyclopropyl-5-fluoropyridin-4-yl)-4,5,6,7-tetrahydropyrazolo[1,5-a]pyridin-4-yl)-1-methyl-3-(trifluoromethyl)-1H-1,2,4-triazole-5-carboxamide]	< 250
O=C(N[C@H]1CCCn2nc(-c3ccnc(C4CC4)c3)cc21)c1ccnc(C(F)(F)F)c1 [Compound I-496a, (S)-N-(2-(2-Cyclopropylpyridin-4-yl)-4,5,6,7-tetrahydropyrazolo[1,5-a]pyridin-4-yl)-2-(trifluoromethyl)isonicotinamide]	< 250
O=C(N[C@H]1CCCn2nc(-c3ccnc(C(F)(F)F)c3)cc21)c1cn(C(F)(F)F)nc1C(F)F [Compound I-497a, (S)-3-(Difluoromethyl)-1-(trifluoromethyl)-N-(2-(2-(trifluoromethyl)pyridin-4-yl)-4,5,6,7-tetrahydropyrazolo[1,5-a]pyridin-4-yl)-1H-pyrazole-4-carboxamide]	< 250
O=C(N[C@H]1CCCn2nc(-c3cc(C4CC4)ncc3F)cc21)c1ccnc(OC(F)(F)F)c1 [Compound I-498a, (S)-N-(2-(2-Cyclopropyl-5-fluoropyridin-4-yl)-4,5,6,7-tetrahydropyrazolo[1,5-a]pyridin-4-yl)-2-(trifluoromethoxy)isonicotinamide]	< 250
Cn1nc(C(F)(F)F)nc1C(=O)N[C@H]1CCCn2nc(-c3ccnc(C4CC4)c3)cc21 [Compound I-499a, (S)-N-(2-(2-Cyclopropylpyridin-4-yl)-4,5,6,7-tetrahydropyrazolo[1,5-a]pyridin-4-yl)-1-methyl-3-(trifluoromethyl)-1H-1,2,4-triazole-5-carboxamide]	< 250
CC(F)(F)c1cc(-c2cc3n(n2)CCC[C@@H]3NC(=O)c2ccnc(C(F)(F)F)c2)ccn1 [Compound I-500a, (S)-N-(2-(2-(1,1-Difluoroethyl)pyridin-4-yl)-4,5,6,7-tetrahydropyrazolo[1,5-a]pyridin-4-yl)-2-(trifluoromethyl)isonicotinamide]	< 250
O=C(N[C@H]1CCCn2nc(-c3ccnc(C(F)(F)F)c3)cc21)C12CC(C(F)(F)F)(C1)C2 [Compound I-501a, (S)-3-(Trifluoromethyl)-N-(2-(2-(trifluoromethyl)pyridin-4-yl)-4,5,6,7-tetrahydropyrazolo[1,5-a]pyridin-4-yl)bicyclo[1.1.1]pentane-1-carboxamide]	< 250
O=C(N[C@@H]1CCCn2nc(-c3cc(C(F)(F)F)ncc3F)nc21)c1cncc(C(F)(F)F)n1 [Compound I-502b]	> 1000
COc1cc(-c2nc3c(o2)CCC[C@H]3NC(=O)c2cncc(C(F)(F)F)n2)c(F)cn1 [Compound I-503b]	> 1000
Cn1nc(C(F)(F)F)nc1C(=O)N[C@@H]1CCCc2oc(-c3ccnc(C4CC4)c3)nc21 [Compound I-504b]	> 1000
O=C(N[C@H]1CCCc2oc(-c3ccnc(C4CC4)c3)nc21)c1cn(C(F)(F)F)nc1C(F)F [Compound I-505a, (S)—N-(2-(2-Cyclopropylpyridin-4-yl)-4,5,6,7-tetrahydrobenzo[d]oxazol-4-yl)-3-(difluoromethyl)-1-(trifluoromethyl)-1H-pyrazole-4-carboxamide]	< 250
O=C(N[C@H]1CCCc2oc(-c3ccnc(C(F)(F)F)c3)nc21)c1cn(C(F)(F)F)nc1C(F)F [Compound I-506a, (S)-3-(Difluoromethyl)-1-(trifluoromethyl)-N-(2-(2-(trifluoromethyl)pyridin-4-yl)-4,5,6,7-tetrahydrobenzo[d]oxazol-4-yl)-1H-pyrazole-4-carboxamide]	< 250

SMILES	IC50 [nM]
O=C(N[C@H]1CCCc2oc(-c3ccnc(C(F)(F)F)c3)nc21)C12CC(C(F)(F)F)(C1)C2 [Compound I-507a, (S)-3-(Trifluoromethyl)-N-(2-(2-(trifluoromethyl)pyridin-4-yl)-4,5,6,7-tetrahydrobenzo[d]oxazol-4-yl)bicyclo[1.1.1]pentane-1-carboxamide]	< 250
CC(F)(F)c1cc(-c2nc3c(o2)CCC[C@@H]3NC(=O)c2cccc(F)c2)ccn1 [Compound I-508a, (S)—N-(2-(2-(1,1-difluoroethyl)pyridin-4-yl)-4,5,6,7-tetrahydrobenzo[d]oxazol-4-yl)-3-fluorobenzamide]	< 250
CC(F)(F)c1cc(-c2nc3c(o2)CCC[C@H]3NC(=O)c2cccc(F)c2)ccn1 [Compound I-508b, (R)—N-(2-(2-(1,1-difluoroethyl)pyridin-4-yl)-4,5,6,7-tetrahydrobenzo[d]oxazol-4-yl)-3-fluorobenzamide]	> 1000
O=C(N[C@@H]1CCCc2nc(-c3ccnc(C4CC4)c3)oc21)c1cncc(C(F)(F)F)n1 [Compound I-509b]	> 1000
O=C(N[C@@H]1CCCc2nc(-c3ccnc(C(F)(F)F)c3)oc21)c1cncc(C(F)(F)F)n1 [Compound I-510b]	> 1000
O=C(N[C@@H]1CCCc2nc(-c3cc(C4CC4)ncc3F)oc21)c1cncc(C(F)(F)F)n1 [Compound I-511b]	> 1000
COc1cc(-c2nc3c(o2)[C@H](NC(=O)c2cncc(C(F)(F)F)n2)CCC3)ccn1 [Compound I-512b]	> 1000
COc1cc(-c2nc3c(o2)[C@H](NC(=O)c2cncc(C(F)(F)F)n2)CCC3)c(Cl)cn1 [Compound I-513b]	> 1000
Cn1nc(C(F)(F)F)cc1C(=O)N[C@H]1CCCc2nc(-c3cc(C(F)(F)F)ncc3F)oc21 [Compound I-514a, (S)—N-(2-(5-Fluoro-2-(trifluoromethyl)pyridin-4-yl)-4,5,6,7-tetrahydrobenzo[d]oxazol-7-yl)-1-methyl-3-(trifluoromethyl)-1H-pyrazole-5-carboxamide]	< 250
O=C(N[C@H]1CCCc2nc(-c3ccnc(C(F)(F)F)c3)oc21)C12CC(C(F)(F)F)(C1)C2 [Compound I-515a]	< 250
COc1cc(-c2cc3n(n2)CCCC[C@H]3NC(=O)c2cc(F)cc(C#N)c2)c(F)cn1 [Compound I-516b]	500 to 1000
COc1cc(C(=O)N[C@@H]2CCCCn3nc(-c4cc(C(F)(F)F)ncc4F)cc32)ccn1 [Compound I-517b]	500 to 1000
O=C(N[C@H]1CCCc2oc(-c3ccnc(C4CC4)c3)nc21)c1cn(C(F)(F)F)nc1C(F)(F)F [Compound I-519a, (S)—N-(2-(2-cyclopropylpyridin-4-yl)-4,5,6,7-tetrahydrobenzo[d]oxazol-4-yl)-1,3-bis(trifluoromethyl)-1H-pyrazole-4-carboxamide]	< 250
O=C(N[C@H]1CCCc2oc(-c3ccnc(C(F)(F)F)c3)nc21)c1cn(C(F)(F)F)nc1C(F)(F)F [Compound I-520a, (S)-1,3-bis(trifluoromethyl)-N-(2-(2-(trifluoromethyl)pyridin-4-yl)-4,5,6,7-tetrahydrobenzo[d]oxazol-4-yl)-1H-pyrazole-4-carboxamide]	< 250
O=C(N[C@H]1CCn2nc(-c3ccnc(C(F)(F)F)c3)cc21)c1cn(C(F)(F)F)nc1C(F)(F)F [Compound I-521a, (S)-1,3-bis(trifluoromethyl)-N-(2-(2-(trifluoromethyl)pyridin-4-yl)-5,6-dihydro-4H-pyrrolo[1,2-b]pyrazol-4-yl)-1H-pyrazole-4-carboxamide]	< 250
O=C(N[C@H]1CCn2nc(-c3cc(C(F)(F)F)ncc3F)cc21)C1CC2(CC2)C1 [Compound I-522a, (S)—N-(2-(5-Fluoro-2-(trifluoromethyl)pyridin-4-yl)-5,6-dihydro-4H-pyrrolo[1,2-b]pyrazol-4-yl)spiro[2.3]hexane-5-carboxamide]	< 250
CC1(C)CC(C(=O)N[C@H]2CCn3nc(-c4cc(C(F)(F)F)ncc4F)cc32)C1 [Compound I-523a, (S)-N-(2-(5-Fluoro-2-(trifluoromethyl)pyridin-4-yl)-5,6-dihydro-4H-pyrrolo[1,2-b]pyrazol-4-yl)-3,3-dimethylcyclobutane-1-carboxamide]	< 250
